{"source": "patent US7304171B2", "about": "“Compounds and methods for cytoprotection” (Migenix Corp., priority 2004, dated 2007)", "system": "rd1 mutant mice retinas (retinal photoreceptors)", "assay": "Murine rd1 retinal explant model for retinitis pigmentosa: photoreceptor cytoprotection in vitro", "assay_type": "cell-based, mouse", "details": "1 μM", "description": "Retinas were dissected at postnatal day 7 from rd1 mutant mice (Bowes et al., 1990 Nature 347:677; Frasson et al., 1999 Nat. Med. 5:1183), which carry a spontaneous cGMP phosphodiesterase mutation in retinal rod photoreceptors, leading to rapid and premature rod cell apoptosis in this animal model for the ophthalmic degenerative disease retinitis pigmentosa (RP); control retinas were from the background strain (C3H). Retinas were mounted flat on nitrocellulose membranes attached to culture dish inserts and maintained in serum-free R16 culture medium for 21 days, reflecting a stage corresponding to postnatal day 28 (Caffe et al., 2001 J. Chem. Neuroanat. 22:263). […] Slides containing the sections were coded and scored using light microscopy, by counting the rows of photoreceptors in the outer nuclear layer of the retina for five fields from each section. […] Typically, six sections from each preparation were scored, representing different cutting depths, and the collected averages from the six slides were averaged to yield an average value of remaining rows of retinal photoceptors per retina, which value was used for statistical analysis. Data were analyzed by Student's paired t-test; ratios were also calculated of treated:untreated retinas from each intra-animal pair and analyzed by Student's one-group t-test, with the population mean set to 1.0."}
{"smiles": "CO/N=C1\\CCC2C3CCc4cc(O)c(C56CC7CC(CC(C7)C5)C6)cc4C3CC[C@]12C", "note": "(some centres unmarked) [compound 5]", "values": [{"measurement": "No. Rows Photoreceptors", "setting": "rd1 retinal explant, 21 days of culture, n = 4, paired t-test p = 0.038 vs contralateral DMSO control (1.87 ± 0.11)", "result": "2.11 ± 0.13"}, {"measurement": "Treated:Untreated", "setting": "ratio of photoreceptor rows, treated:untreated retina of each intra-animal pair, 21 days, 1-group t-test p = 0.144", "result": "1.10 ± 0.10"}]}
